Source: paper PMC11628845 (Acta Pharmaceutica Sinica. B, 2024)
Where two headings read alike, the source gives them in different places.

Columns and labels:
HBV [1] = details: cited from earlier work
[2] = system: wild-type HBV (genotype C); assay: microbe, parasite or virus in culture; assay type: cell-based; details: Hepatitis B virus
[3] = system: ETV-resistant HBV (rtL180M + A181C + M204V); assay: microbe, parasite or virus in culture; assay type: cell-based; details: Hepatitis B virus
HBcAg = HBcAg (Hepatitis B virus genotype D subtype ayw, UniProt P03146); assay type: cell-based
wild type HBV (pHBV 1.3) = assay: microbe, parasite or virus in culture; assay type: cell-based; details: read-out: HBeAg IC50
in vivo = assay: in vivo; set-up: species or system ICR mouse
HBV [4] = assay: HBV infection of HepG2-NTCP cells, secreted HBeAg by ELISA
HBV [5] = assay: HBVcircle transfection system in Huh7 cells; assay type: cell-based, Hepatitis B virus; details: 0.1-200 μmol/L, 48 h
HBV genotypes A‒D = assay: Antiviral activity across HBV genotypes A‒D in Huh7; assay type: cell-based; details: Hepatitis B virus, Huh-7, read-out: IC50 across HBV genotypes
Cp149 protein = Cp149 protein (Hepatitis B virus genotype D subtype ayw, UniProt P03146); assay: biochemical; details: read-out: inhibition of capsid formation
[6] = Huh-7, read-out: HBeAg IC50, rt180M181C204V

Chain of HBcAg (P03146 whole entry): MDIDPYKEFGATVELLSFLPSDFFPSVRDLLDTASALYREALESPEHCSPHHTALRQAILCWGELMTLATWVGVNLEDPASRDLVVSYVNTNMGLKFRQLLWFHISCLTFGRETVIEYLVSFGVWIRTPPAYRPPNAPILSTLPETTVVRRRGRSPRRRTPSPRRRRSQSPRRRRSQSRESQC
Chain of Cp149 protein (P03146 1-149): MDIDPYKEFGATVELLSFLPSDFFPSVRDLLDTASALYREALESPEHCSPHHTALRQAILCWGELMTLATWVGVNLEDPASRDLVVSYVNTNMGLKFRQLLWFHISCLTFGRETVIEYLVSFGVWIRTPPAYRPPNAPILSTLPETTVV

For COc1ccccc1/C(Br)=C(\NC(=O)c1ccc([N+](=O)[O-])cc1)C(=O)N1CCCCC1 [AT-130], the IC50 (HBV [1]) is listed as 0.127 µM.

In the case of O=C(NCc1cnc(C(F)(F)F)s1)c1ccc2c(c1)NC(=O)c1ccccc1S2(=O)=O [vebicorvir], the IC50 (HBV [1]) is given as 0.173 µM.

With C=C1[C@H](CO)[C@@H](O)C[C@@H]1n1cnc2c(=O)[nH]c(N)nc21 [ETV, entecavir, reference compound] the IC50 ([2]; Huh-7, read-out: HBeAg IC50) was over 100 µM and the IC50 [3, 6] was over 100 µM.

For GLS4, the IC50 (HBV [1]) is listed as 0.012 µM, the “concentration needed to significantly inhibit HBcAg's expression” value (HBcAg) is listed as “above 10 μmol/L” and the “decrease of HBcAg expression” value (HBcAg) is listed as 56.4%. For the same molecule, the IC50 (wild type HBV (pHBV 1.3); Wide type (pHBV 1.3)) was 0.252 µM.

For COC(=O)C1=C(CN2CCOCC2)NC(c2nccs2)=N[C@@H]1c1ccc(F)cc1Br [NVR-010-001-E2], the IC50 (HBV [1]) is listed as 0.011 µM.

In the case of Cc1cc(NC(=O)c2cccc(S(=O)(=O)N[C@H]3CCOC3)c2)ccc1F [JNJ-632], the IC50 (HBV [1]) is given as 0.12 µM.

With COc1ccc(Cc2nc(NC(=O)C34CC5CC(CC(C5)C3)C4)n(C)c2Cc2ccc(OC)c(OC)c2)cc1 [11a, (Z)-N-(5-(3,4-Dimethoxybenzyl)-4-(4-methoxybenzyl)-1-methyl-1,3-dihydro-2H-imidazole-2-ylidene)adamantane-1-carboxamide] the half-life (in vivo; both, ICR, mouse, in vivo) was 3 to 6.2 h, the bioavailability (in vivo; both, ICR, mouse, in vivo, po, 10 mg/kg) was 24.8 to 39.2% and the plasma clearance (in vivo; po, range over female and male mice) was 202 to 322 mL/min/kg. For the same molecule, the IC50 (HBV [4]; Hepatitis B virus, read-out: half inhibitory concentration on HBeAg) was 23.7 µM, the “inhibition of HBeAg levels in combination with IFNa2” value (HBV [4]; IFNa2 1000 IU/mL plus 11a 10 and 30 μmol/L, HepG2-NTCP) was “significant synergistic inhibition” and the “HBsAg and cccDNA” value (HBV [5]) was “not HBsAg and cccDNA”. The “secreted HBeAg” value (HBV [5]) was “inhibits HBeAg in a concentration-dependent manner”, the IC50 ([2]; Huh-7, read-out: HBeAg IC50) was 12.9 µM and the IC50 ([2]; Huh-7, wild-type cells) was 0.75 µM. For the same molecule, the IC50 (HBV genotypes A‒D) was 0.1 to 1.97 µM, the “HBV DNA vs control group” value (HBV (pHBV1.3); 50 mpk b.i.d., intraperitoneal) was “no statistical difference” and the “serum HBeAg and HBsAg levels” value (HBV (pHBV1.3); 50 or 100 mpk b.i.d.) was “None of these treatments altered serum HBeAg and HBsAg levels”. For the same molecule, the “reduction of HBV DNA in plasma” value (HBV (pHBV1.3); 100 mpk b.i.d., intraperitoneal, Day 5) was 4 fold, the “antiviral effect of combination with TDF” value (HBV (pHBV1.3); TDF 2 mpk q.d. and 11a 100 mpk b.i.d.) was “weak synergistic antiviral effects” and the “serum ALT and AST levels or body weight” value (HBV (pHBV1.3); control vs experimental groups) was “no significant changes”. The “H&E staining in liver tissues” value (HBV (pHBV1.3); mouse, in vivo) was “no obvious pathological changes”, the “levels of HBcAg in liver, immunofluorescence” value (HBV (pHBV1.3); mouse, in vivo) was “significantly reduced the levels of HBcAg” and the IC50 ([3]; Huh-7, ETV-resistant cells) was 13.7 µM. The IC50 [3, 6] was 45.7 µM, the inhibition at 40 µM (Cp149 protein) was 53% and the IC50 (wild type HBV (pHBV 1.3); Hepatitis B virus) was 15.2 µM.

In the case of COC(=O)C1=C(C)NC(c2ncc(F)cc2F)=N[C@H]1c1ccc(F)cc1Cl [Bay 41-4109], the IC50 (HBV [1]; anti-HBV potency) is listed as 0.05 µM.

In the case of CCOC(=O)C1=C(CN2CCN3C(=O)N(CC(C)(C)C(=O)O)C[C@@H]3C2)N=C(c2nccs2)N[C@H]1c1cccc(F)c1C [RG7907, linvencorvir], the IC50 (HBV [1]) is listed as 0.006 µM.

For C[C@H](NS(=O)(=O)c1cc(C(=O)Nc2ccc(F)c(C#N)c2)n(C)c1)C(F)(F)F [JNJ-379], the IC50 (HBV [1]; no reference printed directly) is listed as 0.069 µM.

For CCOC(=O)C1=C(CN2CCO[C@H](CCC(=O)O)C2)NC(c2nccs2)=N[C@H]1c1ccc(F)cc1Br [HEC72702, 3-((R)-4-(((R)-6-(2-Bromo-4-fluorophenyl)-5-(ethoxycarbonyl)-2-(thiazol-2-yl)-3,6-dihydropyrimidin-4-yl)methyl)morpholin-2-yl)propanoic acid], the IC50 (HBV [1]) is given as 0.039 µM.
